Data: US20260265233A1, “BENZOTHIOPHENE DERIVATIVES AS RXFP1 AGONISTS” (BRISTOL-MYERS SQUIBB COMPANY, priority 2021, published 2026)

Target: T1, human RXFP1 (Homo sapiens, UniProt Q9HBX9)
T1 construct: expressed in transfected cells
T1 sequence (Q9HBX9 1-757): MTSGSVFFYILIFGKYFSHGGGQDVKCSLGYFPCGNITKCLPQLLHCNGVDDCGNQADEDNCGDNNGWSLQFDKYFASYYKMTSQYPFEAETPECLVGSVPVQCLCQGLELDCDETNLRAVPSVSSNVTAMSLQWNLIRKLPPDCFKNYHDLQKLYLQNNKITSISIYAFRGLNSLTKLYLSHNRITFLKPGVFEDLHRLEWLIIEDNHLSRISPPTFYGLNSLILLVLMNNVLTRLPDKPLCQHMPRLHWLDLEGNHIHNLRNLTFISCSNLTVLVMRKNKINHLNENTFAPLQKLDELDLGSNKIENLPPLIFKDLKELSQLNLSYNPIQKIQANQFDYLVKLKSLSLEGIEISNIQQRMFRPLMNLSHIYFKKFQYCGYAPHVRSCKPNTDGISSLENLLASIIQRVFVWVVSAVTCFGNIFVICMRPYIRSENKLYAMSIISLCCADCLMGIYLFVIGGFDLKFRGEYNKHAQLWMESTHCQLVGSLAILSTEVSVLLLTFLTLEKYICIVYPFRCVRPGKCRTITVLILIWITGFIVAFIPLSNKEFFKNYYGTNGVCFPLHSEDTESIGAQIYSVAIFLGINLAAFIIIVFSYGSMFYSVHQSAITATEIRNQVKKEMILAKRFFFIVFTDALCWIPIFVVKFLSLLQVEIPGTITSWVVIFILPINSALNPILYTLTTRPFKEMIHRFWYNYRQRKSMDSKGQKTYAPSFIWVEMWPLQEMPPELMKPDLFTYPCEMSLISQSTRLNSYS
Experiment: hRXFP1 HEK293 cAMP assay (HTRF)
Assay type: cell-based
Conditions: HEK293 cells stably expressing human RXFP1; 30 min at rt; intracellular cAMP by HTRF
Procedure: RXFP1 Cyclic Adenosine Monophosphate (cAMP) Assays. Human embryonic kidney cells 293 (HEK293) cells and HEK293 cells stably expressing human RXFP1, were cultured in MEM medium supplemented with 10% qualified FBS, and 300 μg/ml hygromycin (Life Technologies). Cells were dissociated and suspended in assay buffer. The assay buffer was HBSS buffer (with calcium and magnesium) containing 20 mM HEPES, 0.05% BSA, and 0.5 mM IBMX. Cells (3000 cells per well, except 1500 cell per well for HEK293 cells stably expressing human RXFP1) were added to 384-well Proxiplates (Perkin-Elmer). Cells were immediately treated with test compounds in DMSO (2% final) at final concentrations in the range of 0.010 nM to 50 μM. Cells were incubated for 30 min at rt. The level of intracellular cAMP was determined using the HTRF HiRange cAMP assay reagent kit (Cisbio) according to manufacturer's instructions. Solutions of cryptate conjugated anti-cAMP and d2 fluorophore-labelled cAMP were made in a supplied lysis buffer separately. Upon completion of the reaction, the cells were lysed with equal volume of the d2-cAMP solution and anti-cAMP solution. After a 1 h rt incubation, time-resolved fluorescence intensity was measured using the Envision (Perkin-Elmer) at 400 nm excitation and dual emission at 590 nm and 665 nm. A calibration curve was constructed with an external cAMP standard at concentrations ranging from 2.7 μM to 0.1 pM by plotting the fluorescent intensity ratio from 665 nm emission to the intensity from the 590 nm emission against cAMP concentrations. The potency and activity of a compound to […] cAMP production was then determined by fitting to a 4-parametric logistic equation from a plot of cAMP level versus compound concentrations.
The examples disclosed below were tested in the human RXFP1 (hRXFP1) HEK293 cAMP assay described above and found to have agonist activity.

EC50 | Compound
10.3 nM | COc1ccc(-c2cc(CNS(C)(=O)=O)ccc2F)cc1C(=O)Nc1c(C(=O)Nc2ccc(F)c(C(F)(F)F)c2)sc2cc(C(F)(F)F)ccc12 [Example 17, N-(4-fluoro-3-(trifluoromethyl)phenyl)-3-(2′-fluoro-4-methoxy-5′-(methylsulfonamidomethyl)-[1,1′-biphenyl]-3-carboxamido)-6-(trifluoromethyl)benzo[b]thiophene-2-carboxamide]
194 nM | COc1ccc(C2CCC(C)(O)CC2)cc1C(=O)Nc1c(C(=O)Nc2ccc(F)c(C(F)(F)F)c2)sc2cc(C(F)(F)F)ccc12 (single isomer, unassigned) [Example 38, N-(4-fluoro-3-(trifluoromethyl)phenyl)-3-(5-(4-hydroxy-4-methylcyclohexyl)-2-methoxybenzamido)-6-(trifluoromethyl)benzo[b]thiophene-2-carboxamide]
1200 nM | COc1ccc(C2CCN(CCS(C)(=O)=O)C2)cc1C(=O)Nc1c(C(=O)Nc2ccc(F)c(C(F)(F)F)c2)sc2cc(C(F)(F)F)ccc12 (single isomer, unassigned) [Example 149, N-(4-fluoro-3-(trifluoromethyl)phenyl)-3-(2-methoxy-5-(1-(2-(methylsulfonyl)ethyl)pyrrolidin-3-yl)benzamido)-6-(trifluoromethyl) benzo[b] thiophene-2-carboxamide]
850 nM | COc1ccc(C2CCCC(C)(O)C2)cc1C(=O)Nc1c(C(=O)Nc2ccc(F)c(C(F)(F)F)c2)sc2cc(C(F)(F)F)ccc12 (single isomer, unassigned) [Example 34, N-(4-fluoro-3-(trifluoromethyl)phenyl)-3-(5-(3-hydroxy-3-methylcyclohexyl)-2-methoxybenzamido)-6-(trifluoromethyl)benzo[b]thiophene-2-carboxamide]
147 nM | COc1ccc(C(=O)N2CC(CO)C2)cc1C(=O)Nc1c(C(=O)Nc2ccc(F)c(C(F)(F)F)c2)sc2cc(C(F)(F)F)ccc12 [Example 177, N-(4-fluoro-3-(trifluoromethyl)phenyl)-3-(5-(3-(hydroxymethyl)azetidine-1-carbonyl)-2-methoxy-benzamido)-6-(trifluoromethyl) benzo[b] thiophene-2-carboxamide]
71 nM | COc1ccc(C2=NOC3CN(CC(C)(C)O)CC23)cc1C(=O)Nc1c(C(=O)Nc2ccc(F)c(C(F)(F)F)c2)sc2cc(C(F)(F)F)ccc12 (single isomer, unassigned) [Example 53, N-(4-fluoro-3-(trifluoromethyl)phenyl)-3-(5-(5-(2-hydroxy-2-methylpropyl)-3a, 5,6,6a-tetrahydro-4H-pyrrolo[3,4-d]isoxazol-3-yl)-2-methoxybenzamido)-6-(trifluoromethyl)benzo[b]thiophene-2-carboxamide]
324 nM | COc1ccc(C2CCCN(C(=O)CN)C2)cc1C(=O)Nc1c(C(=O)Nc2ccc(F)c(C(F)(F)F)c2)sc2cc(C(F)(F)F)ccc12 (stereo not drawn) [Example 96, N-(4-fluoro-3-(trifluoromethyl)phenyl)-3-(5-(1-glycylpiperidin-3-yl)-2-methoxy-benzamido)-6-(trifluoromethyl) benzo[b] thiophene-2-carboxamide]
2010 nM | COc1ccc(-n2cc(C(=O)O)cn2)cc1C(=O)Nc1c(C(=O)Nc2ccc(F)c(C(F)(F)F)c2)sc2cc(C(F)(F)F)ccc12 [Example 2, 1-(3-((2-((4-fluoro-3-(trifluoromethyl)phenyl)carbamoyl)-6-(trifluoromethyl)benzo[b]thiophen-3-yl)carbamoyl)-4-methoxyphenyl)-1H-pyrazole-4-carboxylic acid]
222 nM | COc1ccc(C2=NOC3(CCOC3=O)C2)cc1C(=O)Nc1c(C(=O)Nc2ccc(F)c(C(F)(F)F)c2)sc2cc(C(F)(F)F)ccc12 (stereo not drawn) [Example 251, N-(4-fluoro-3-(trifluoromethyl)phenyl)-3-(2-methoxy-5-(6-oxo-1,7-dioxa-2-azaspiro[4.4]non-2-en-3-yl)benzamido)-6-(trifluoromethyl) benzo[b] thiophene-2-carboxamide]
2540 nM | COc1ncc(N2CCCC(CO)C2)cc1C(=O)Nc1c(C(=O)Nc2ccc(F)c(C(F)(F)F)c2)sc2cc(C(F)(F)F)ccc12 (stereo not drawn) [Example 11, N-(2-((4-fluoro-3-(trifluoromethyl)phenyl)carbamoyl)-6-(trifluoromethyl)benzo[b]thiophen-3-yl)-5-(3-(hydroxymethyl)piperidin-1-yl)-2-methoxynicotinamide]
1500 nM | COc1ccc(CNC(C)(C)CO)cc1C(=O)Nc1c(C(=O)Nc2ccc(F)c(C(F)(F)F)c2)sc2cc(C(F)(F)F)ccc12 [Example 235, N-(4-fluoro-3-(trifluoromethyl)phenyl)-3-(5-(((1-hydroxy-2-methylpropan-2-yl)amino)methyl)-2-methoxy-benzamido)-6-(trifluoromethyl) benzo[b] thiophene-2-carboxamide]
617 nM | COc1ccc(C2CC2CO)cc1C(=O)Nc1c(C(=O)Nc2ccc(F)c(C(F)(F)F)c2)sc2cc(C(F)(F)F)ccc12 (stereo not drawn) [Example 49, N-(4-fluoro-3-(trifluoromethyl)phenyl)-3-(5-(2-(hydroxymethyl)cyclopropyl)-2-methoxybenzamido)-6-(trifluoromethyl) benzo[b]thiophene-2-carboxamide]
111 nM | COc1ccc(-c2cccc(CNS(C)(=O)=O)c2)cc1C(=O)Nc1c(C(=O)Nc2ccc(F)c(C(F)(F)F)c2)sc2cc(C(F)(F)F)ccc12 [Example 121, N-(4-fluoro-3-(trifluoromethyl)phenyl)-3-(4-methoxy-3′-(methylsulfon-amidomethyl)-[1,1′-biphenyl]-3-carboxamido)-6-(trifluoromethyl) benzo[b] thiophene-2-carboxamide]
199 nM | COc1ccc(C2CC2C(C)(C)O)cc1C(=O)Nc1c(C(=O)Nc2ccc(F)c(C(F)(F)F)c2)sc2cc(C(F)(F)F)ccc12 (stereo not drawn) [Example 159, N-(4-fluoro-3-(trifluoromethyl)phenyl)-3-(5-(2-(2-hydroxypropan-2-yl)cyclopropyl)-2-methoxy-benzamido)-6-(trifluoromethyl) benzo[b] thiophene-2-carboxamide]
1140 nM | COc1ccc(C2=NOC3CC(NC(=O)C(C)(C)O)CC23)cc1C(=O)Nc1c(C(=O)Nc2ccc(F)c(C(F)(F)F)c2)sc2cc(C(F)(F)F)ccc12 (single isomer, unassigned) [Example 265, N-[4-fluoro-3-(trifluoromethyl)phenyl]-3-{5-[5-(2-hydroxy-2-methyl-propanamido)-3aH,4H,5H,6H, 6aH-cyclopenta[d] [1,2]oxazol-3-yl]-2-methoxy-benzamido}-6-(trifluoromethyl)-1-benzothiophene-2-carboxamide]
514 nM | COc1ccc(C2CCN(C(=O)CC(C)(C)O)C2)cc1C(=O)Nc1c(C(=O)Nc2ccc(F)c(C(F)(F)F)c2)sc2cc(C(F)(F)F)ccc12 (stereo not drawn) [Example 136, N-(4-fluoro-3-(trifluoromethyl)phenyl)-3-(5-(1-(3-hydroxy-3-methylbutanoyl)pyrrolidin-3-yl)-2-methoxy-benzamido)-6-(trifluoromethyl) benzo[b] thiophene-2-carboxamide]
145 nM | COc1ccc(C(=O)N2CC(C)(O)C2)cc1C(=O)Nc1c(C(=O)Nc2ccc(F)c(C(F)(F)F)c2)sc2cc(C(F)(F)F)ccc12 [Example 180, N-(4-fluoro-3-(trifluoromethyl)phenyl)-3-(5-(3-hydroxy-3-methylazetidine-1-carbonyl)-2-methoxy-benzamido)-6-(trifluoromethyl) benzo[b] thiophene-2-carboxamide]

Compound | EC50
(R)-6-chloro- N-(4-fluoro-3- (trifluoromethyl) phenyl)-3-(5- (2- (hydroxymethyl) morpholine- 4-carbonyl)-2- methoxy- benzamido) thieno[3, 2-c]pyridine-2- carboxamide [Example 239] | 2100 nM
